“Also recorded” adds a separate entry of the source.
Key:
[1] = test system: human tau (hTau); test: Immunofluorescence staining of phospho-tau in primary neurons with hTau overexpression; type: cell-based; conditions: DEPTAC 200 μM for 24 h; *p < 0.05, **p < 0.01, n = 3 cell wells
Procedure: Lentivirus LV-EF1α-hTau-GFP (3.50E+8 vg/mL) was packaged by OBiO (Shanghai, China) and used for hTau-overexpression (fused with GFP) in cultured primary rat neurons. AAV-CaMKIIα-Cre (diluted to 5.21E + 07 vg/mL) and AAV-EF1α-DIO-mCherry (3.24E + 12 vg/mL) were obtained from BrainVTA (Wuhan, China) and co-injected (1:1 vol/vol) for sparse labeling of dorsal DG neurons. Doxycycline was purchased from Energy Chemical (Shanghai, China). Rabbit polyclonal DEPTAC antibody was prepared by Daian Biotechnology (Wuhan, China). All other reagents including MG132 were purchased from Sigma-Aldrich (USA), unless otherwise specified.
Primary hippocampal neurons were prepared from E12–E15 days SD rat embryos. Briefly, pregnant rats were acutely executed, hippocampus was dissected on ice and gently minced in DME/F12 (Hyclone) then suspended in 0.125% (vol/vol) trypsin solution at 37 °C for 20 min. Enzymatic activity was stopped by fetal bovine serum. Neurons were initially kept in 10% FBS-containing DME/F12 for 4–6 h, and subsequently cultured in Neurobasal (Hyclone) with 2% B27, 1% glutamax and 1% penicillin–streptomycin (Thermo Fisher Scientific) in dishes pre-coated with 100 μg/mL poly-D-lysine. Serum was gradually removed by replacing half of the medium for each time within the following 2 days. […]

[2] = test system: primary rat hippocampal neurons; test: Cell penetrability assessment in cultured primary hippocampal neurons; type: in vitro ADME; conditions: FITC-labeled DEPTAC 100 μM, 24 h, fixed; laser-scanning microscopy (fluorescence)
Procedure: Primary hippocampal neurons were prepared from E12–E15 days SD rat embryos. Briefly, pregnant rats were acutely executed, hippocampus was dissected on ice and gently minced in DME/F12 (Hyclone) then suspended in 0.125% (vol/vol) trypsin solution at 37 °C for 20 min. Enzymatic activity was stopped by fetal bovine serum. Neurons were initially kept in 10% FBS-containing DME/F12 for 4–6 h, and subsequently cultured in Neurobasal (Hyclone) with 2% B27, 1% glutamax and 1% penicillin–streptomycin (Thermo Fisher Scientific) in dishes pre-coated with 100 μg/mL poly-D-lysine. Serum was gradually removed by replacing half of the medium for each time within the following 2 days. Especially, to inhibit the proteasome-dependent proteolysis, the cultured hippocampal neurons were treated with 5 μM MG132 for 5 h before harvest.
FITC-labeled DEPTAC (100 μM) was dissolved in sterilized water, and administrated into the medium of cultured primary rat hippocampal neurons for 24 h. Neurons were fixed with 4% paraformaldehyde, co-stained with DAPI (Beyotime), and then washed with PBS for 3 × 5 min. FITC was observed under a laser-scanning microscopy (Zeiss).

[3] = test system: brain-blood barrier (BBB); test: Brain-blood barrier penetration after tail vein delivery; type: in vivo; conditions: delivered through mouse tail vein; 10 mM; 2-month male C57BL/6 mice
Procedure: For 2-month male C57BL/6 mice, 10 mM FITC-labeled or unlabeled-DEPTAC were directly injected through the tail vein or lateral ventricle for the evaluation of BBB-penetrability. For 9-month 3×Tg AD mice or Tau368 (20–30 g body weight), unlabeled-DEPTAC (5 mM, 1 μL for each time) was delivered for once into the lateral ventricle through direct stereotaxic injection, or repeatedly administrated through guiding cannulas (RWD, Shenzhen, China) implanted into the lateral ventricle once every 3 days for a consecutive month to test its dephosphorylation efficiency. Mice were restricted in a custom designed device and stayed awake during drug administration, and sacrificed at 24 h post the single or last DEPTAC administration.

(1) YQQYQDATADEQG, originates from the porcine β-tubulin 422–434 for recognizing and binding tau proteins.[5],[6] (2) GSGS, a linker for increasing the flexibility of the peptide.[15] (3) KKVAVVRTPPKSP, for recruiting PP2A-Bα,[16] and (4) RRRRRRRR [DEPTAC, DEPhosphorylation TArgeting Chimera; 38 amino acid residues, C185H314N72O56]
averaged immunoreactive (IR) intensity of phospho-tau [1]: reduced
neuron penetrability in vitro [2]: high neuron penetrability; also recorded: High cell penetrability
brain-blood barrier (BBB) penetrating efficiency [3]: limited

From PMC8280143, “A novel dephosphorylation targeting chimera selectively promoting tau removal in tauopathies” (Signal Transduction and Targeted Therapy, 2021)
